Values joined by “and” are separate entries in the source; they are usually repeats but may differ in a detail not shown here. Equal values may be shown once.
Target: ROCK2 (human) (UniProt O75116)
Assay: Inhibition of ROCK2 Kinase Activity

Sequence of ROCK2 (human) (O75116 whole entry, looked up): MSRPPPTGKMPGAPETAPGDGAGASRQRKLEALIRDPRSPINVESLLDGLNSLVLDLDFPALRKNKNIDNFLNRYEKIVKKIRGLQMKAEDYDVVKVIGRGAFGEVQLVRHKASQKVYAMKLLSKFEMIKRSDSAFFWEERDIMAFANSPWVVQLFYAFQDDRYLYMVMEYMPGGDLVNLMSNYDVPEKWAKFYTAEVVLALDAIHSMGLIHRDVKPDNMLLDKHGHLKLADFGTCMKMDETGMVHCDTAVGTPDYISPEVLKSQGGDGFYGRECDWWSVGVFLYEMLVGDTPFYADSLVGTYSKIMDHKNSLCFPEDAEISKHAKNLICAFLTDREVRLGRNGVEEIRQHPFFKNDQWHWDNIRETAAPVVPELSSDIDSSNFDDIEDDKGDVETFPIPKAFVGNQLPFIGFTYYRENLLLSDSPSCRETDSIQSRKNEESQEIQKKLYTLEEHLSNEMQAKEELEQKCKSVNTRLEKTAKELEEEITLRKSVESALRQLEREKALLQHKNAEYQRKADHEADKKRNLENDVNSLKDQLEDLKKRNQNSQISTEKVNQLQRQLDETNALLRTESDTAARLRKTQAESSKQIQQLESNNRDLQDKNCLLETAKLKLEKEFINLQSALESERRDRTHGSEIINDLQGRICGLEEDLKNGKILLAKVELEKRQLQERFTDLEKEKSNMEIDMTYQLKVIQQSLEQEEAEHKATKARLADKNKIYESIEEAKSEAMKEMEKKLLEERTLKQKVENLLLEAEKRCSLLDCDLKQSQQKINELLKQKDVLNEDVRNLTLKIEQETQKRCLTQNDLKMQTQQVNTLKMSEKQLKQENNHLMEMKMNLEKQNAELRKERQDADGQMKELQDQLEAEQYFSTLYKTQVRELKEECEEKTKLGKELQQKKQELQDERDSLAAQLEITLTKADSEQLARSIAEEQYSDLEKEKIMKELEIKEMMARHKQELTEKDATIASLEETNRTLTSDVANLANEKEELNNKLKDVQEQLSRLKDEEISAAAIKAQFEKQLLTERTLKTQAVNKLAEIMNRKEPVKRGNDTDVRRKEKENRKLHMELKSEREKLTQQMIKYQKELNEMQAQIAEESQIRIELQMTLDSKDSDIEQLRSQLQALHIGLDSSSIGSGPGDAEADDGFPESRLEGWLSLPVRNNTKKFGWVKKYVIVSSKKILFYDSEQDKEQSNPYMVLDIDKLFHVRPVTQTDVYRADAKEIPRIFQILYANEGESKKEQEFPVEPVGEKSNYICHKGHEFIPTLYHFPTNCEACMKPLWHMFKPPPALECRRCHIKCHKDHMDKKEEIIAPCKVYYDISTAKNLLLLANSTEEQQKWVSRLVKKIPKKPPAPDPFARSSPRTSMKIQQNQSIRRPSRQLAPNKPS

| Structure (SMILES) | IC50 |
| --- | --- |
| NC(C(F)(F)F)C1(CC2CC2)CCC(Oc2cc3cc[nH]c(=O)c3cc2Cl)CC1 (centres undefined) | 0.1 to 1 µM |
| CCC(N)[C@]1(CC)CC[C@H](Oc2cc3cc[nH]c(=O)c3cc2C)CC1 (some centres undefined) | 0.1 to 1 µM |
| CCC(N)C1(C(F)(F)F)CCC(Oc2cc3cc[nH]c(=O)c3cc2Cl)CC1 (centres undefined) | 0.1 to 1 µM and ≤ 0.01 µM |
| CC(C)C1(C(N)c2cncs2)CCC(Oc2cc3cc[nH]c(=O)c3cc2Cl)CC1 (centres undefined) | 0.01 to 0.1 µM |
| NC(c1ccccc1)[C@]1(CC2CC2)CC[C@H](Oc2cc3cc[nH]c(=O)c3cc2Cl)CC1 (some centres undefined) | 0.1 to 1 µM |
| CC(C)C1(C(N)c2nccs2)CCC(Oc2cc3cc[nH]c(=O)c3cc2Cl)CC1 (centres undefined) | 0.1 to 1 µM |
| CCC(N)[C@]1(C2CCS(=O)(=O)CC2)CC[C@H](Oc2cc3cc[nH]c(=O)c3cc2Cl)CC1 (some centres undefined) | ≤ 0.01 µM |
| CCC(N)[C@]1(C2CC2)CC[C@H](Oc2cc3cc[nH]c(=O)c3cc2Cl)CC1 (some centres undefined) | ≤ 0.01 µM |
| CCC(N)[C@]1(CC)CC[C@H](Oc2c(F)cc3cnccc3c2C)CC1 (some centres undefined) | 0.1 to 1 µM |
| CC[C@]1(C(C)N)CC[C@@H](Oc2cc3cc[nH]c(=O)c3cc2C)CC1 (some centres undefined) | 0.01 to 0.1 µM |
| CCCC1(C(N)CC)CCC(Oc2cc3cc[nH]c(=O)c3cc2Cl)CC1 (centres undefined) | ≤ 0.01 µM |
| CCC(N)[C@]1(CC)CC[C@H](Oc2c(F)cc3c(=O)[nH]ccc3c2C)CC1 (some centres undefined) | 0.1 to 1 µM |
| NC(c1ccccc1)C1(C2CCCC2)CCC(Oc2cc3cc[nH]c(=O)c3cc2Cl)CC1 (centres undefined) | 0.01 to 0.1 µM |
| CC[C@]1(C(C)N)CC[C@@H](Oc2cc3c(Cc4ccccc4)c[nH]c(=O)c3cc2Cl)CC1 (some centres undefined) | 0.1 to 1 µM |
| CCC1(C(C)N)CCC(Oc2cc3cc[nH]c(=O)c3cc2Cl)CC1 (centres undefined) | 0.01 to 0.1 µM and ≤ 0.01 µM |
| CCC(N)[C@]1(OC)CC[C@@H](Oc2cc3cc[nH]c(=O)c3cc2Cl)CC1 (some centres undefined) | 0.01 to 0.1 µM |
| CC[C@]1(C(N)CF)CC[C@H](Oc2cc3cc[nH]c(=O)c3cc2Cl)CC1 (some centres undefined) | 0.01 to 0.1 µM |
| CCC(N)[C@]1(C2CCOCC2)CC[C@H](Oc2cc3cc[nH]c(=O)c3cc2Cl)CC1 (some centres undefined) | ≤ 0.01 µM |
| CCC(N)[C@]1(CC)CC[C@H](Oc2cc3cc[nH]c(=O)c3cc2F)CC1 (some centres undefined) | 0.01 to 0.1 µM |
| CCOC[C@]1(C(N)CC)CC[C@@H](Oc2cc3cc[nH]c(=O)c3cc2Cl)CC1 (some centres undefined) | ≤ 0.01 µM |
| CCCC1(C(N)C2CC2)CCC(Oc2cc3cc[nH]c(=O)c3cc2Cl)CC1 (centres undefined) | ≤ 0.01 µM and 0.01 to 0.1 µM |
| CCC(N)[C@]1(C2CCOCC2)CC[C@@H](Oc2cc3cc[nH]c(=O)c3cc2Cl)CC1 (some centres undefined) | 0.1 to 1 µM |
| CCC(N)[C@]1(C2CCSCC2)CC[C@H](Oc2cc3cc[nH]c(=O)c3cc2Cl)CC1 (some centres undefined) | ≤ 0.01 µM |
| CCC(N)[C@]1(CC)CC[C@H](Oc2c(C)cc3c(=O)[nH]ccc3c2C)CC1 (some centres undefined) | 0.1 to 1 µM |
| CCC[C@]1(C(C)N)CC[C@@H](Oc2cc3cc[nH]c(=O)c3cc2Cl)CC1 (some centres undefined) | ≤ 0.01 µM |
| CCC(NCC(C)C)[C@]1(CC)CC[C@H](Oc2cc3cc[nH]c(=O)c3cc2Cl)CC1 (some centres undefined) | 0.1 to 1 µM |
| CCC(N)[C@]1(OC)CC[C@H](Oc2cc3cc[nH]c(=O)c3cc2Cl)CC1 (some centres undefined) | 0.01 to 0.1 µM |

| Structure (SMILES) | IC50 |
| --- | --- |
| CCC(NCC1CC1)[C@]1(CC)CC[C@H](Oc2cc3cc[nH]c(=O)c3cc2Cl)CC1 (some centres undefined) | 0.1 to 1 µM |
| CCC(N)C1(C)CCC(Oc2cc3cc[nH]c(=O)c3cc2Cl)CC1 (centres undefined) | 0.01 to 0.1 µM |
| CCC(N)C1(C2CCCC2)CCC(Oc2cc3cc[nH]c(=O)c3cc2Cl)CC1 (centres undefined) | 0.01 to 0.1 µM |
| CC(C)CC(N)[C@]1(CC2CC2)CC[C@H](Oc2cc3cc[nH]c(=O)c3cc2Cl)CC1 (some centres undefined) | ≤ 0.01 µM |
| CCC(NCc1ccccc1)[C@]1(CC)CC[C@H](Oc2cc3cc[nH]c(=O)c3cc2Cl)CC1 (some centres undefined) | 0.1 to 1 µM |
| NC(C1CC1)[C@]1(CC2CCOCC2)CC[C@H](Oc2cc3cc[nH]c(=O)c3cc2Cl)CC1 (some centres undefined) | ≤ 0.01 µM |
| CCCC(N)[C@]1(C)CC[C@H](Oc2cc3cc[nH]c(=O)c3cc2Cl)CC1 (some centres undefined) | ≤ 0.01 µM |
| CCC(N)C1(C2CCC2)CCC(Oc2cc3cc[nH]c(=O)c3cc2Cl)CC1 (centres undefined) | 0.01 to 0.1 µM and 0.1 to 1 µM |
| CCC(N)[C@]1(C)CC[C@H](Oc2cc3cc[nH]c(=O)c3cc2Cl)CC1 (some centres undefined) | ≤ 0.01 µM |
| CCCC(N)[C@]1(C(C)C)CC[C@H](Oc2cc3cc[nH]c(=O)c3cc2Cl)CC1 (some centres undefined) | 0.01 to 0.1 µM |
| CCCCNC(CC)[C@]1(CC)CC[C@H](Oc2cc3cc[nH]c(=O)c3cc2Cl)CC1 (some centres undefined) | 0.1 to 1 µM |
| CCC(N)[C@]1(C(C)C)CC[C@H](Oc2cc3c(F)c[nH]c(=O)c3cc2Cl)CC1 (some centres undefined) | 0.01 to 0.1 µM |
| CC[C@H](N)[C@]1(C2CCOCC2)CC[C@H](Oc2cc3cc[nH]c(=O)c3cc2Cl)CC1 | 0.01 to 0.1 µM |
| CCC(N)C1(CC2CC2)CCC(Oc2cc3cc[nH]c(=O)c3cc2Cl)CC1 (centres undefined) | 0.01 to 0.1 µM and ≤ 0.01 µM |
| C[C@]1(C(N)c2ccccc2)CC[C@@H](Oc2cc3cc[nH]c(=O)c3cc2Cl)CC1 (some centres undefined) | 0.01 to 0.1 µM |
| CCOC1(C(N)CC)CCC(Oc2cc3cc[nH]c(=O)c3cc2Cl)CC1 (centres undefined) | 0.01 to 0.1 µM |
| CCC(N)[C@]1(CC)CC[C@H](Oc2c(C)cc3cnccc3c2C)CC1 (some centres undefined) | 0.1 to 1 µM |
| CCC(N)C1(Cc2ccccc2)CCC(Oc2cc3cc[nH]c(=O)c3cc2Cl)CC1 (centres undefined) | 0.01 to 0.1 µM |
| CCCC[C@]1(C(N)CC)CC[C@@H](Oc2cc3cc[nH]c(=O)c3cc2Cl)CC1 (some centres undefined) | ≤ 0.01 µM |
| CC[C@]1(C(N)CF)CC[C@@H](Oc2cc3cc[nH]c(=O)c3cc2Cl)CC1 (some centres undefined) | ≤ 0.01 µM |
| NC(C1CC1)C1(CC2CC2)CCC(Oc2cc3cc[nH]c(=O)c3cc2Cl)CC1 (centres undefined) | 0.01 to 0.1 µM and ≤ 0.01 µM |
| C[C@]1(C(N)C2CC2)CC[C@@H](Oc2cc3cc[nH]c(=O)c3cc2Cl)CC1 (some centres undefined) | ≤ 0.01 µM |
| CC[C@@H](N)[C@]1(C2CCOCC2)CC[C@H](Oc2cc3cc[nH]c(=O)c3cc2Cl)CC1 | ≤ 0.01 µM |
| NC(C1CC1)[C@]1(CCCC(F)(F)F)CC[C@H](Oc2cc3cc[nH]c(=O)c3cc2Cl)CC1 (some centres undefined) | ≤ 0.01 µM |
| CC(N)[C@]1(C2CC2)CC[C@H](Oc2cc3cc[nH]c(=O)c3cc2Cl)CC1 (some centres undefined) | 0.01 to 0.1 µM |
| CCCC(N)C1(CC2CC2)CCC(Oc2cc3cc[nH]c(=O)c3cc2Cl)CC1 (centres undefined) | 0.01 to 0.1 µM and ≤ 0.01 µM |
| CCCC[C@]1(C(N)CC)CC[C@@H](Oc2cc3c(Cc4ccccc4)c[nH]c(=O)c3cc2Cl)CC1 (some centres undefined) | 0.1 to 1 µM |

| Structure (SMILES) | IC50 |
| --- | --- |
| CC(C)C(N)C1(C(C)C)CCC(Oc2cc3cc[nH]c(=O)c3cc2Cl)CC1 (centres undefined) | 0.1 to 1 µM |
| CC[C@@H](N)[C@]1(C)CC[C@H](Oc2cc3cc[nH]c(=O)c3cc2Cl)CC1 | ≤ 0.01 µM |
| CCC(N)C1(CC(C)C)CCC(Oc2cc3cc[nH]c(=O)c3cc2Cl)CC1 (centres undefined) | 0.01 to 0.1 µM and 0.1 to 1 µM |
| CC(N)C1(C2CCC2)CCC(Oc2cc3cc[nH]c(=O)c3cc2Cl)CC1 (centres undefined) | 0.01 to 0.1 µM |
| CCC(N)[C@]1(CC)CC[C@H](Oc2cc3cc[nH]c(=O)c3cc2Cl)CC1 (some centres undefined) | ≤ 0.01 µM |
| CC(N)C1(CC2CC2)CCC(Oc2cc3cc[nH]c(=O)c3cc2Cl)CC1 (centres undefined) | 0.01 to 0.1 µM and ≤ 0.01 µM |
| CC[C@]1(C(C)N)CC[C@@H](Oc2cc3cc[nH]c(=O)c3cc2F)CC1 (some centres undefined) | 0.01 to 0.1 µM |
| CC[C@@H](N)[C@]1(CC)CC[C@H](Oc2cc3cc[nH]c(=O)c3cc2Cl)CC1 | ≤ 0.01 µM |
| CC[C@]1(C(C)N)CC[C@@H](Oc2cc3ccncc3cc2Br)CC1 (some centres undefined) | 0.1 to 1 µM |
| CCC(N)[C@]1(C2CCCCC2)CC[C@H](Oc2cc3cc[nH]c(=O)c3cc2Cl)CC1 (some centres undefined) | 0.01 to 0.1 µM |
| CCC(N)[C@]1(CCCC(F)(F)F)CC[C@H](Oc2cc3cc[nH]c(=O)c3cc2Cl)CC1 (some centres undefined) | ≤ 0.01 µM |
| CCC1(C(N)CCOC)CCC(Oc2cc3cc[nH]c(=O)c3cc2Cl)CC1 (centres undefined) | 0.01 to 0.1 µM |
| CC(C)C(N)C1(CC2CC2)CCC(Oc2cc3cc[nH]c(=O)c3cc2Cl)CC1 (centres undefined) | ≤ 0.01 µM |
| CC[C@H](N)[C@]1(CC)CC[C@H](Oc2cc3cc[nH]c(=O)c3cc2Cl)CC1 | ≤ 0.01 µM |
| CC[C@]1(C(C)N)CC[C@@H](Oc2ccc3cnccc3c2Cl)CC1 (some centres undefined) | 0.1 to 1 µM |
| CC[C@H](N)[C@]1(C)CC[C@H](Oc2cc3cc[nH]c(=O)c3cc2Cl)CC1 | ≤ 0.01 µM |
| NC(C1CC1)[C@]1(C2CC2)CC[C@H](Oc2cc3cc[nH]c(=O)c3cc2Cl)CC1 (some centres undefined) | ≤ 0.01 µM |
| CCC(N)C1(C(C)C)CCC(Oc2cc3cc[nH]c(=O)c3cc2Cl)CC1 (centres undefined) | ≤ 0.01 µM and 0.01 to 0.1 µM |
| CCC[C@]1(C(C)N)CC[C@@H](Oc2cc3ccnc(N)c3cc2Cl)CC1 (some centres undefined) | 0.1 to 1 µM |
| CC[C@]1(C(N)C2CC2)CC[C@@H](Oc2cc3cc[nH]c(=O)c3cc2Cl)CC1 (some centres undefined) | ≤ 0.01 µM |
| CC[C@]1(C(C)N)CC[C@@H](Oc2c(F)cc3c(=O)[nH]ccc3c2C)CC1 (some centres undefined) | 0.1 to 1 µM |
| CCC(N)[C@]1(CC)CC[C@H](Oc2cc3ccncc3cc2C)CC1 (some centres undefined) | 0.1 to 1 µM |
| CC[C@]1(C(C)N)CC[C@@H](Oc2c(F)cc3cnccc3c2C)CC1 (some centres undefined) | 0.1 to 1 µM |
| CCC(N)[C@]1(CC2CCOCC2)CC[C@H](Oc2cc3cc[nH]c(=O)c3cc2Cl)CC1 (some centres undefined) | 0.01 to 0.1 µM |
| CCC(N)C1(COC(C)C)CCC(Oc2cc3cc[nH]c(=O)c3cc2Cl)CC1 (centres undefined) | 0.01 to 0.1 µM and 0.1 to 1 µM |

Reference: the Kinase Knowledgebase extract (Sharma et al. 2016)
